PMC6272992, “Synthesis and Cytotoxic Effect of Some Novel 1,2-Dihydropyridin-3-carbonitrile and Nicotinonitrile Derivatives” (Molecules, 2015)
Converted amounts (≈) assume the structure as drawn.

Columns and labels:
[1] = tested on: NCI-H460 (non-small cell lung cancer); assay: SRB cancer cell growth assay, NCI-H460; format: cell-based, human; set-up: key to activity class NCI-H460: highly active; b: moderately active; weakly active; details: for IC50: Homo sapiens, NCI-H460, 48 h exposure, SRB, read-out: IC50 (μg/mL) NCI-H460
Protocol: (§1) The in vitro cytotoxic activity the newly synthesized compounds against human breast cell line (MCF7), non-small cell lung cancer NCI-H460, CNS cancer SF-268 and WI 38 (normal fibroblast cells) were evaluated using doxorubicin as the reference drug, according to the method reported by Skehan et al..
(§2) The newly synthesized compounds were evaluated in vitro against three human cancer cell lines; which are MCF-7 (breast adenocarcinoma), NCI-H460 (non-small cell lung cancer) and SF-268 (CNS cancer), and WI 38 (normal fibroblast cells) were used in this study. MCF-7 was obtained from the European Collection of Cell Cultures (ECACC, Salisbury, UK) but NCI-H460, SF-268 and WI 38 were kindly provided by the National Cancer Institute (NCI, Cairo, Egypt). They grow as monolayers routinely maintained in RPMI-1640 medium supplemented with 5% heat inactivated fetal bovine serum (FBS), 2 mM glutamine and antibiotics (penicillin 100 U/mL, streptomycin 100 µg/mL), at 37 °C in a humidified atmosphere containing 5% CO2. Exponentially growing cells were obtained by plating 1.5 × 10^5 cells/mL for MCF-7 and SF-268, and 0.75 × 10^4 cells/mL for NCI-H460 followed by 24 h of incubation. The effect of the vehicle solvent (DMSO) on the growth of these cell lines was evaluated in all experiments by exposing untreated control cells to the maximum concentration (0.5%) of DMSO used in each assay.
(§3) The effect of compounds on the in vitro growth of human tumor cell lines were evaluated according to the procedure adopted by the National Cancer Institute (NCI, […], USA) in the “In vitro Anticancer Drug Discovery Screen” that uses the protein-binding dye sulforhodamine B (SRB) to assess cell growth. In the assay protocol, all cells were incubated at 37 °C under humidified atmosphere containing 5% CO2. Briefly, exponentially cells growing in 96-well plates were then exposed for 48 h to five serial concentrations of each compound, starting from a maximum concentration of 150 μg/mL. Following this exposure period, adherent cells were fixed, washed and stained. The bound stain was solubilized and the absorbance was measured at 492 nm in a Power Wave XS plate reader (Bio-Tek Instruments Inc., Winston, NC, USA). For each test compound and cell line, a dose response curve was obtained and the inhibitory concentration of 50% (IC50), corresponding to the concentration of the compounds that inhibited 50% of the net cell growth was calculated as described elsewhere. Doxorubicin was used as a positive control and tested in the same manner.

SF-268 (CNS cancer) = assay: SRB cancer cell growth assay, SF-268; format: cell-based, human; set-up: key to activity class SF-268: highly active; b: moderately active; weakly active; details: for IC50: Homo sapiens, SF-268, 48 h exposure, SRB, read-out: IC50 (μg/mL) SF-268
Protocol: as §1, §2, §3

[2] = tested on: WI 38 (normal fibroblast cells); assay: SRB cell growth assay, normal cells WI 38; format: cell-based, human; details: 48 h exposure, non-cytotoxic = IC50 > 100 μg/mL; for IC50: Homo sapiens
Protocol: as §1, §2, §3

[3] = tested on: MCF-7 (breast adenocarcinoma); assay: SRB cancer cell growth assay, MCF-7; format: cell-based, human; set-up: key to activity class MCF-7: highly active; b: moderately active; weakly active; details: for IC50: Homo sapiens, MCF7, MCF-7, 48 h exposure, SRB, read-out: IC50 (μg/mL) MCF-7
Protocol: as §1, §2, §3

| melting point [°C] | IC50 [1] [µg/mL] | IC50 (SF-268 (CNS cancer)) [µg/mL] | IC50 [3] [µg/mL] | SMILES | activity class NCI-H460 [1] | activity class SF-268 (SF-268 (CNS cancer)) | IC50 [2] [µg/mL] | activity class MCF-7 [3] | IC50 (μg/mL) WI 38 [2] |
| --- | --- | --- | --- | --- | --- | --- | --- | --- | --- |
| 226 to 228 | – | – | – | N#Cc1c(-c2ccc(F)cc2)cc(-c2ccc(Cl)cc2Cl)nc1NN=Cc1ccccc1Br [Compound 21a, 2-[2-(2-Bromobenzylidene)hydrazinyl]-6-(2,4-dichlorophenyl)-4-(4-fluorophenyl)nicotinonitrile] | – | – | – | – | – |
| 268 to 269 | 0.9 ± 0.12 (≈ 1.79 µM) | 2.34 ± 0.51 (≈ 4.66 µM) | 0.66 ± 0.21 (≈ 1.31 µM) | N#Cc1c(-c2ccc(F)cc2)cc(-c2ccc(Cl)cc2Cl)nc1NN=C1C(=O)Nc2ccccc21 [Compound 20, 6-(2,4-Dichlorophenyl)-4-(4-fluorophenyl)-2-[2-(2-oxoindolin-3-ylidene)hydrazinyl]nicotinonitrile] | a | a | 72.5 ± 2.4 (≈ 144 µM) | a | – |
| 219 to 221 | 30.7 ± 1.64 (≈ 57.1 µM) | 28.2 ± 8.83 (≈ 52.4 µM) | 30.6 ± 1.1 (≈ 56.9 µM) | N#Cc1c(-c2ccc(F)cc2)cc(-c2ccc(Cl)cc2Cl)nc1OCC(=O)NN=Cc1ccc(F)cc1 [Compound 10, 2-[3-Cyano-6-(2,4-dichlorophenyl)-4-(4-fluorophenyl)pyridin-2-yloxy]-N′-(4-fluorobenzylidene)-acetohydrazide] | b | b | 19.8 ± 2.68 (≈ 36.8 µM) | b | – |
| 149 to 151 | 18.9 ± 1.03 (≈ 38.4 µM) | 23.2 ± 4.12 (≈ 47.2 µM) | 16.3 ± 1.87 (≈ 33 µM) | N#Cc1c(-c2ccc(F)cc2)cc(-c2ccc(Cl)cc2Cl)nc1NCc1ccc2c(c1)OCO2 [Compound 13, 2-(Benzo[d][1,3]dioxol-5-ylmethylamino)-6-(2,4-dichlorophenyl)-4-(4-fluorophenyl)nicotinonitrile] | b | b | 20.4 ± 4.99 (≈ 41.4 µM) | b | – |
| 296 to 298 | – | – | – | N#Cc1c(-c2ccc(F)cc2)cc(-c2ccc(Cl)cc2Cl)nc1NN=Cc1cccc2ccccc12 [Compound 21e, 6-(2,4-Dichlorophenyl)-4-(4-fluorophenyl)-2-[2-(naphthalen-1-ylmethylene)hydrazinyl] nicotinonitrile] | – | – | – | – | – |
| 112 to 114 | – | – | – | N#Cc1c(-c2ccc(F)cc2)cc(-c2ccc(Cl)cc2Cl)nc1N1CCOCC1 [Compound 15b, 6-(2,4-Dichlorophenyl)-4-(4-fluorophenyl)-2-morpholinonicotinonitrile] | – | – | – | – | – |
| 188 to 189 | 74 ± 3.65 (≈ 174 µM) | 62.1 ± 3.61 (≈ 146 µM) | 36.2 ± 2.14 (≈ 85.2 µM) | N#Cc1c(N)c2c(-c3ccc(F)cc3)cc(-c3ccc(Cl)cc3Cl)nc2[nH]c1=O [Compound 7, 4-Amino-7-(2,4-dichlorophenyl)-5-(4-fluorophenyl)-2-oxo-1,2-dihydro-1,8-naphthyridine-3-carbonitrile] | c | c | 23 ± 8.2 (≈ 54 µM) | c | – |
| 98 to 100 | 16.4 ± 2.32 (≈ 37.2 µM) | 38.9 ± 2.63 (≈ 88.4 µM) | 37.1 ± 7.34 (≈ 84.2 µM) | CC1CCCCN1c1nc(-c2ccc(Cl)cc2Cl)cc(-c2ccc(F)cc2)c1C#N (stereo not drawn) [Compound 15a, 6-(2,4-Dichlorophenyl)-4-(4-fluorophenyl)-2-(2-methylpiperidin-1-yl)nicotinonitrile] | b | c | 30.6 ± 6.21 (≈ 69.5 µM) | c | – |
| 158 to 159 | – | – | – | N#Cc1c(-c2ccc(F)cc2)cc(-c2ccc(Cl)cc2Cl)nc1NCc1ccccc1 [Compound 12, 2-(Benzylamino)-6-(2,4-dichlorophenyl)-4-(4-fluorophenyl)nicotinonitrile] | – | – | – | – | – |
| – | 0.09 ± 0.008 (≈ 0.166 µM) | 0.09 ± 0.007 (≈ 0.166 µM) | 0.04 ± 0.008 (≈ 0.0736 µM) | COc1cccc2c1C(=O)c1c(O)c3c(c(O)c1C2=O)C[C@@](O)(C(=O)CO)C[C@@H]3O[C@H]1C[C@H](N)[C@H](O)[C@H](C)O1 [Doxorubicin, reference compound] | – | – | – | – | non-cytotoxic |
| 287 to 289 | 62.3 ± 10.3 (≈ 142 µM) | 10.4 ± 4.19 (≈ 23.8 µM) | 75.2 ± 13.9 (≈ 172 µM) | Cc1cc(C)n(-c2nc(-c3ccc(Cl)cc3Cl)cc(-c3ccc(F)cc3)c2C#N)n1 [Compound 19, 6-(2,4-Dichlorophenyl)-2-(3,5-dimethyl-1H-pyrazol-1-yl)-4-(4-fluorophenyl)nicotinonitrile] | c | a | 50.2 ± 10.2 (≈ 115 µM) | c | – |
| 276 to 277 | – | – | – | N#Cc1c(-c2ccc(F)cc2)cc(-c2ccc(Cl)cc2Cl)[nH]c1=O [Compound 2, 6-(2,4-Dichlorophenyl)-4-(4-fluorophenyl)-2-oxo-1,2-dihydropyridin-3-carbonitrile] | – | – | – | – | – |
| 278 to 280 | 45 ± 10.5 (≈ 86.2 µM) | 32.5 ± 6.04 (≈ 62.2 µM) | 66 ± 8.25 (≈ 127 µM) | COc1ccc(C=NNc2nc(-c3ccc(Cl)cc3Cl)cc(-c3ccc(F)cc3)c2C#N)cc1OC [Compound 21d, 6-(2,4-Dichlorophenyl)-2-[2-(3,4-dimethoxybenzylidene)hydrazinyl]-4-(4-fluorophenyl) nicotinonitrile] | c | b | – | c | non-cytotoxic |
| 142 to 143 | – | – | – | N#Cc1c(-c2ccc(F)cc2)cc(-c2ccc(Cl)cc2Cl)nc1NCCc1ccccc1 [Compound 14, 6-(2,4-Dichlorophenyl)-4-(4-fluorophenyl)-2-(phenylethylamino)nicotinonitrile] | – | – | – | – | – |
| 99 to 101 | 0.02 ± 0.001 (≈ 0.0491 µM) | 0.01 ± 0.003 (≈ 0.0246 µM) | 0.01 ± 0.002 (≈ 0.0246 µM) | N#Cc1c(-c2ccc(F)cc2)cc(-c2ccc(Cl)cc2Cl)nc1C(C#N)C#N [Compound 16, 2-[3-Cyano-6-(2,4-dichlorophenyl)-4-(4-fluorophenyl)pyridin-2-yl]malononitrile] | a | a | > 100 | a | non-cytotoxic |
| 223 to 224 | 0.86 ± 0.02 (≈ 2.3 µM) | 2.19 ± 0.83 (≈ 5.87 µM) | 0.61 ± 0.082 (≈ 1.63 µM) | N#Cc1c(-c2ccc(F)cc2)cc(-c2ccc(Cl)cc2Cl)nc1NN [Compound 17, 6-(2,4-Dichlorophenyl)-4-(4-fluorophenyl)-2-hydrazinylnicotinonitrile] | a | a | 64.1 ± 1.22 (≈ 172 µM) | a | – |
| 246 to 248 | 0.01 ± 0.003 (≈ 0.0228 µM) | 20.2 ± 3.26 (≈ 46 µM) | 20.2 ± 2.26 (≈ 46 µM) | CC1=NN(c2nc(-c3ccc(Cl)cc3Cl)cc(-c3ccc(F)cc3)c2C#N)C(=O)C1 [Compound 18, 6-(2,4-Dichlorophenyl)-4-(4-fluorophenyl)-2-(3-methyl-5-oxo-4,5-dihydro-1H-pyrazol-1-yl) nicotinonitrile] | a | b | 29.8 ± 4.88 (≈ 67.9 µM) | b | – |
| 119 to 121 | 0.01 ± 0.002 (≈ 0.0225 µM) | 0.02 ± 0.045 (≈ 0.0449 µM) | 0.02 ± 0.002 (≈ 0.0449 µM) | CCOC(=O)COc1nc(-c2ccc(Cl)cc2Cl)cc(-c2ccc(F)cc2)c1C#N [Compound 8, Ethyl 2-[3-cyano-6-(2,4-dichlorophenyl)-4-(4-fluorophenyl)pyridin-2-yloxy]acetate] | a | a | > 100 | a | non-cytotoxic |
| 181 to 182 | – | – | – | N#Cc1c(-c2ccc(F)cc2)cc(-c2ccc(Cl)cc2Cl)nc1Cl [Compound 11, 2-Chloro-6-(2,4-dichlorophenyl)-4-(4-fluorophenyl)nicotinonitrile] | – | – | – | – | – |
| 281 to 283 | – | – | – | N#Cc1c(-c2ccc(F)cc2)cc(-c2ccc(Cl)cc2Cl)nc1NN=Cc1ccc([N+](=O)[O-])cc1 [Compound 21b, 6-(2,4-Dichlorophenyl)-4-(4-fluorophenyl)-2-[2-(4-nitrobenzylidene)hydrazinyl]nicotinonitrile] | – | – | – | – | – |
